{"source": "patent US20030118577A1", "about": "“Use of analogues of superoxide dismutase for treating hepatocellular insufficiencies” (priority 2000, published 2003)", "key": {"[1]": {"test_system": "acute hepatic insufficiency induced by acetaminophen", "test": "Survival of mice after intraperitoneal acetaminophen (acute hepatic insufficiency)", "conditions": "for percentage of surviving animals: Group XV: APAP 1000 mg/kg, CuDIPS 10 mg/kg (P)", "procedure": "The intraperitoneal injection of acetaminophen into mice induces a severe hepatotoxicity, the degree of which may be evaluated by the survival of the animals, measuring transaminase activities, and macroscopic and microscopic examination of the livers.\nThe acetaminophen in solution at 100 mg/ml in PBS at pH 7.4 is administered by the intraperitoneal route.\nIn a first series of experiments, a group of mice received a dose of 1000 mg/kg of acetaminophen; a second group received a dose of 1000 mg/kg of acetaminophen and a dose of 10 mg/kg of MnTBAP administered either 2 h before the acetaminophen or 6 h after; a control group received either MnTBAP alone (10 mg/kg), or PBS alone.\nThe survival of the animals is monitored for 24 hours after the administration of acetaminophen.\nThe effect of N-acetyl-L-cysteine (NAC), of CuDIPS, and of MnTBAP on the survival of mice after intraperitoneal injection of 1000 mg/kg of acetaminophen (APAP) was compared.\nMnTBAP, NAC, or CuDIPS are administered in the form of a bolus, preventively, 2 hours before (P) or, curatively, 6 hours after (C) the acetaminophen.\nThe survival of the animals is monitored for 24 hours after administration of acetaminophen."}, "[2]": {"test_system": "hepatic impairments resulting from the administration of galactosamine-LPS", "conditions": "prior administration; MIESEL et al. 1995; cited from earlier work"}, "[3]": {"test_system": "hepatic impairments induced by the administration of acetaminophen or of galactosamine", "conditions": "simultaneous administration; EP 0333490; cited from earlier work"}}}
{"molecule": "CC(C)c1cc(C(=O)[O-])c(O)c(C(C)C)c1.CC(C)c1cc(C(=O)[O-])c(O)c(C(C)C)c1.[Cu+2]", "note": "[CuDIPS, Cu(II)-(diisopropylsalicylate)2]", "values": [{"measurement": "effect on survival rate, administered preventively", "setting": "[1]; APAP 1000 mg/kg, 2 hours before (P)", "result": "does not significantly increase the survival rate"}, {"measurement": "percentage of surviving animals", "setting": "[1]; time 0 h", "result": 100, "unit": "%"}, {"measurement": "percentage of surviving animals", "setting": "[1]; time 6 h", "result": 100, "unit": "%"}, {"measurement": "percentage of surviving animals", "setting": "[1]; time 8 h", "result": 91.6, "unit": "%"}, {"measurement": "percentage of surviving animals", "setting": "[1]; time 9 h", "result": 83.3, "unit": "%"}, {"measurement": "percentage of surviving animals", "setting": "[1]; time 10 h", "result": 75, "unit": "%"}, {"measurement": "percentage of surviving animals", "setting": "[1]; time 11 h", "result": 58.3, "unit": "%"}, {"measurement": "percentage of surviving animals", "setting": "[1]; time 12 h", "result": 58.3, "unit": "%"}, {"measurement": "percentage of surviving animals", "setting": "[1]; time 13 h", "result": 41.6, "unit": "%"}, {"measurement": "percentage of surviving animals", "setting": "[1]; time 14 h", "result": 41.6, "unit": "%"}, {"measurement": "percentage of surviving animals", "setting": "[1]; time 15 h", "result": 41.6, "unit": "%"}, {"measurement": "percentage of surviving animals", "setting": "[1]; time 16 h", "result": 33.3, "unit": "%"}, {"measurement": "percentage of surviving animals", "setting": "[1]; time 17 h", "result": 33.3, "unit": "%"}, {"measurement": "percentage of surviving animals", "setting": "[1]; time 18 h", "result": 25, "unit": "%"}, {"measurement": "percentage of surviving animals", "setting": "[1]; time 20 h", "result": 25, "unit": "%"}, {"measurement": "percentage of surviving animals", "setting": "[1]; time 22 h", "result": 25, "unit": "%"}, {"measurement": "percentage of surviving animals", "setting": "[1]; time 24 h", "result": 25, "unit": "%"}]}
{"molecule": "C(=NCCCCN=Cc1ccccn1)c1ccccn1.[Cu+2].[O-][Cl+3]([O-])([O-])[O-]", "note": "[CuPu(Py)2]", "values": [{"measurement": "hepatic impairments", "setting": "[2]", "result": "reduced"}]}
{"molecule": "CuZnSOD: copper-zinc superoxide dismutases, also known by the name superoxide dismutase-1", "values": [{"measurement": "hepatic impairments", "setting": "[3]", "result": "reduced"}]}
